The test concerns the target hNaV1.7 (Homo sapiens (Human), UniProt Q15858). The test is described as follows: Competitive binding of tritiated compound to membranes from cells expressing hNav1.7 and the β1 subunit. The following applies: 100 pM [3H]compound, 18 h, room temperature; read-out: NaV1.7 395 Membrane Binding IC50. The protocol:
Tritiated compound binding to membranes isolated from cells that heterologously express hNav1.7 and the β1 subunit
Preparation of membranes containing recombinantly expressed sodium channels: Frozen recombinant cell pellets were thawed on ice and diluted to 4 times the cell pellet weight with ice cold 50 mM Tris HCl, pH 7.4 buffer. The cell suspensions were homogenized on ice using a motorized glass dounce homogeniser. Homogenates were further diluted 8.4 times with ice cold 50 mM Tris HCl, pH 7.4 buffer and then centrifuged at 200×g at 4° C. for 15 min. The supernatants were collected and centrifuged at 10000×g at 4° C. for 50 min. The pellets were then re-suspended in 100 mM NaCl, 20 mM Tris HCl, pH 7.4 buffer containing 1% v/v protease inhibitors (Calbiochem) and re-homogenized on ice. The homogenized membranes were then processed through a syringe equipped with a 26 gauge needle. Protein concentrations were determined by Bradford Assay and the membranes were stored at −80° C.
Radioligand Binding Studies: Saturation experiments. A representative compound of formula (I) was tritiated. Three tritiums were incorporated in place of methyl hydrogens to generate [^3H]compound. Binding of this radioligand was performed in 5 mL borosilicate glass test tubes at room temperature. Binding was initiated by adding membranes to increasing concentrations of [^3H]compound in 100 mM NaCl, 20 mM Tris HCl, pH 7.4 buffer containing 0.01% w/v bovine serum albumin (BSA) for 18 h. Non-specific binding was determined in the presence of 1 μM unlabelled compound. After 18 h, the reactants were filtered through GF/C glass fiber filters presoaked in 0.5% w/v polyethylene imine. Filters were washed with 15 mL ice cold 100 mM NaCl, 20 mM Tris HCl, pH 7.4 buffer containing 0.25% BSA to separate bound from free ligand. [^3H]compound bound to filters was quantified by liquid scintillation counting.
Competitive binding experiments. Binding reactions were performed in 96-well polypropylene plates at room temperature for 18 h. In 360 μL, membranes were incubated with 100 pM [^3H]compound and increasing concentrations of Test Compound. Non-specific binding was defined in the presence of 1 μM unlabelled compound. Reactions were transferred and filtered through 96-well glass fiber/C filter plates presoaked with 0.5% polyethylene imine. The filtered reactions were washed 5 times with 200 μL ice cold buffer containing 0.25% BSA. Bound radioactivity was determined by liquid scintillation counting.
Data Analysis: For saturation experiments, non-specific binding was subtracted from total binding to provide specific binding and these values were recalculated in terms of pmol ligand bound per mg protein. Saturation curves were constructed and dissociation constants were calculated using the single site ligand binding model: Beq=(Bmax*X)/(X+Kd), where Beq is the amount of ligand bound at equilibrium, Bmax is the maximum receptor density, Kd is the dissociation constant for the ligand, and X is the free ligand concentration. For competition studies percent inhibition was determined and IC50 values were calculated using a 4 parameter logistic model (% inhibition=(A+((B−A)/(1+((x/C)^D)))) using XLfit, where A and B are the maximal and minimum inhibition respectively, C is the IC50 concentration and D is the (Hill) slope.
hNaV1.7, sequence (Q15858 whole entry, looked up): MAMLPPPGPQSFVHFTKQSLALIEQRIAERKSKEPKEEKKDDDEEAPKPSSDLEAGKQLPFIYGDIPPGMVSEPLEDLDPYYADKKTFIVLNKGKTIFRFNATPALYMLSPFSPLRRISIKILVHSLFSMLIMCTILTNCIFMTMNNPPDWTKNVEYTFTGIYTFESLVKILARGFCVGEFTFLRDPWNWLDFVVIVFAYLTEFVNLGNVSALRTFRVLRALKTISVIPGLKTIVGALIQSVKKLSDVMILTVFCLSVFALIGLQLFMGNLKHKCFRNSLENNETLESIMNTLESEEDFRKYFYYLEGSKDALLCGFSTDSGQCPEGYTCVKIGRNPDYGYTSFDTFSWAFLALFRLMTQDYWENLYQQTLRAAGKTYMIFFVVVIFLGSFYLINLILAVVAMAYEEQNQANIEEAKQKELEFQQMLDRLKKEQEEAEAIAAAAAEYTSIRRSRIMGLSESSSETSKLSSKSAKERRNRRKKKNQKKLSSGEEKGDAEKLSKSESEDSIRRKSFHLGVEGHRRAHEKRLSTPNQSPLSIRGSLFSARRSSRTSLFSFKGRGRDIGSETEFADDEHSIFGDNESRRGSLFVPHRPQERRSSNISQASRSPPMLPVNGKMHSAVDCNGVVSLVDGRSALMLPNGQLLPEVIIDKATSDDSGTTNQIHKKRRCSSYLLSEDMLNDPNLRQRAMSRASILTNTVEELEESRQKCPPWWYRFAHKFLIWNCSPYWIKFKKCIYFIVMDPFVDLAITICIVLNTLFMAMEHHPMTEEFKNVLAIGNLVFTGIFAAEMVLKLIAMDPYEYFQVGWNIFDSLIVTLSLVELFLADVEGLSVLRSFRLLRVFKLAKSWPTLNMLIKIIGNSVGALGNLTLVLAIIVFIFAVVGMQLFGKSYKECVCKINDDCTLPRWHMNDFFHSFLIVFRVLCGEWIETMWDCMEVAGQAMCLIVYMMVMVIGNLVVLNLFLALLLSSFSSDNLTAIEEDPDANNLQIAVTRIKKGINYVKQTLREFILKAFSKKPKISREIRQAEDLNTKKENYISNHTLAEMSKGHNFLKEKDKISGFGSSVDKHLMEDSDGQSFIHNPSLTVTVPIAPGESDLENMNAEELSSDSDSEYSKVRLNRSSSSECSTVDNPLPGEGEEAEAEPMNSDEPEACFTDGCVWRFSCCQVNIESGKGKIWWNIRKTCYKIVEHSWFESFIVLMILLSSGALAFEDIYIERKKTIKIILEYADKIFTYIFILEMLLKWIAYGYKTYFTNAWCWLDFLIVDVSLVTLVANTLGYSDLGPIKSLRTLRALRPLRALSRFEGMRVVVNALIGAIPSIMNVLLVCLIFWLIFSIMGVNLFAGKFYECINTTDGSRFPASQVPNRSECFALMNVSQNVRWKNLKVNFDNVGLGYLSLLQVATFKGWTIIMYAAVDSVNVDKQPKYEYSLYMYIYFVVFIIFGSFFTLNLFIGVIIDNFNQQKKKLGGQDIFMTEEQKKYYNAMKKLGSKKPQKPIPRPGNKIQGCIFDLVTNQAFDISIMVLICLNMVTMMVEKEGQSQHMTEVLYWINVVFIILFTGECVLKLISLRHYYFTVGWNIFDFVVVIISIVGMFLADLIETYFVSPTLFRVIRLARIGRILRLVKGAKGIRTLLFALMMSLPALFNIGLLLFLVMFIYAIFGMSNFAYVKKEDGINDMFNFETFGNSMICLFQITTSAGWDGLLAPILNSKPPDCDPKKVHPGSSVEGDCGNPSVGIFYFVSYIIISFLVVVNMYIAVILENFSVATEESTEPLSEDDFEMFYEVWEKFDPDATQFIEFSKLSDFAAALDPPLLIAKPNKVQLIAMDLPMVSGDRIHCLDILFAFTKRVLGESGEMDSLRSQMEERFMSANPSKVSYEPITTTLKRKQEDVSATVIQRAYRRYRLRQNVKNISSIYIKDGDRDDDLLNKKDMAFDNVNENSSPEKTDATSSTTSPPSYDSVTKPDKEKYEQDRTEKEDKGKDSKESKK
hNaV1.7, sequence (Q07699 whole entry partner, looked up): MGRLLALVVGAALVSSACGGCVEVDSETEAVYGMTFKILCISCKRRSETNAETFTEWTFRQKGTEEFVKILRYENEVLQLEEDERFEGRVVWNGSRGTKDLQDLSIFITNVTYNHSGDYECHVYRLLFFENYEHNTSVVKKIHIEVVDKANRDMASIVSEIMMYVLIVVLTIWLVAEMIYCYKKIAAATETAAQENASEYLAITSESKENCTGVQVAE
As for `O=C(NS(=O)(=O)N1CCC1)c1cc(Cl)c(COc2ccc(Cl)c(Cl)c2)cc1F` [Preparation 99], the IC50 turned out to be 51 nM. Consider `CN(C)S(=O)(=O)NC(=O)c1cc(Cl)c(Oc2cccc3ccccc23)cc1F` [Preparation 52, 5-chloro-N-(N,N-dimethylsulfamoyl)-2-fluoro-4-(naphthalen-1-yloxy)benzamide], for which the IC50 came to 5200 nM.

Consider `COc1ccc(CCOc2cc(F)c(C(=O)NS(=O)(=O)N(C)C)cc2Cl)cc1` [Preparation 57, 5-chloro-N-(N,N-dimethylsulfamoyl)-2-fluoro-4-(4-methoxy-phenethoxy)benzamide], for which the half-maximal inhibitory concentration (IC50) was determined as 2400 nM.

Regarding `CC(C)COc1ncc(Oc2cc(F)c(C(=O)NS(=O)(=O)N(C)C)cc2Cl)cc1C(F)(F)F` [Preparation 40, 5-chloro-N-(N,N-dimethylsulfamoyl)-2-fluoro-4-((6-iso-butoxy-5-(trifluoro-methyl)pyridin-3-yl)oxy)benzamide], the IC50 worked out at 71 nM. `CN(C)S(=O)(=O)NC(=O)c1cc(Cl)c(Oc2cccc3[nH]ccc23)cc1F` [Preparation 55, 4-((1H-indol-4-yl)oxy)-5-chloro-N-(N,N-dimethyl-sulfamoyl)-2-fluoro-benzamide]: the IC50 was determined as 20000 nM. Consider `CNS(=O)(=O)NC(=O)c1cc(Cl)c(Oc2cnc(Cl)c(Cl)c2)cc1F` [Preparation 38, 5-chloro-4-((5,6-dichloropyridin-3-yl)oxy)-2-fluoro-N-(N-methyl-sulfamoyl)benzamide], for which the half-maximal inhibitory concentration (IC50) worked out at 628 nM. Under `CC(C)COc1ncc(Oc2cc(F)c(C(=O)NS(=O)(=O)NCc3cccnc3)cc2Cl)cc1Cl` [Preparation 22, 5-chloro-4-((5-chloro-6-isobutoxypyridin-3-yl)oxy)-2-fluoro-N-(N-(pyridin-3-ylmethyl)sulfamoyl) benzamide 2,2,2-trifluoroacetate] stands 3580 nM; under `CN(C)S(=O)(=O)NC(=O)c1cc(Cl)c(Oc2ccc(-c3nccs3)cc2)cc1F` [Preparation 44, 5-chloro-N-(N,N-dimethylsulfamoyl)-2-fluoro-4-(4-(thiazol-2-yl)phenoxy) benzamide], 869 nM; under `CC(C)COc1ncc(Oc2cc(F)c(C(=O)NS(=O)(=O)N3CCN(C(=O)OC(C)(C)C)CC3)cc2Cl)cc1Cl` [Preparation 41, tert-butyl 4-(N-(5-chloro-4-((5-chloro-6-isobutoxy-pyridin-3-yl)oxy)-2-fluorobenzoyl)sulfamoyl)piperazine-1-carboxylate], 3800 nM. As for `O=C(NS(=O)(=O)N1CCCC1)c1cc(Cl)c(Oc2cnc(OCC(F)(F)C(F)F)c(Cl)c2)cc1F` [Preparation 66, 5-chloro-4-((5-chloro-6-(2,2,3,3-tetrafluoro-propoxy)pyridin-3-yl)oxy)-2-fluoro-N-(pyrrolidin-1-ylsulfonyl)benzamide], the IC50 stood at 26 nM. As for `O=C(NS(=O)(=O)c1cccnc1)c1cc(Cl)c(Oc2cnc(OCC(F)(F)C(F)F)c(Cl)c2)cc1F` [Preparation 69, 5-chloro-4-((5-chloro-6-(2,2,3,3-tetrafluoro-propoxy)pyridin-3-yl)oxy)-2-fluoro-N-(pyridin-3-ylsulfonyl) benzamide], the concentration for half-maximal inhibition (IC50) came to 950 nM. With `CN(C)S(=O)(=O)NC(=O)c1cc(Cl)c(Oc2ccc3ccncc3c2)cc1F` [Preparation 73, 5-chloro-N-(N,N-dimethylsulfamoyl)-2-fluoro-4-(isoquinolin-7-yloxy)benzamide], the IC50 came out at 20000 nM. On to `O=C(NS(=O)(=O)NC1CCC1)c1cc(Cl)c(Oc2ccc(OC(F)(F)F)c(Cl)c2)cc1F` [Preparation 45, 5-chloro-4-(3-chloro-4-(trifluoromethoxy)phenoxy)-N-(N-cyclobutylsulfamoyl)-2-fluorobenzamide], for which the IC50 was determined as 108 nM. With `CC(C)COc1ncc(Oc2cc(F)c(C(=O)NS(=O)(=O)N(C)C)cc2C#N)cc1Cl` [Preparation 65, 4-((5-chloro-6-iso-butoxypyridin-3-yl)oxy)-5-cyano-N-(N,N-dimethylsulfamoyl)-2-fluorobenzamide], the half-inhibitory concentration (IC50) amounted to 93 nM. Regarding `NS(=O)(=O)NC(=O)c1cc(Cl)c(Oc2cccc3ccccc23)cc1F` [Preparation 53, 5-chloro-2-fluoro-4-(naphthalen-1-yloxy)-N-sulfamoylbenzamide], the 50% inhibitory concentration (IC50) is 23000 nM. As for `O=C(NS(=O)(=O)N1CCC1)c1cc(C2CC2)c(Oc2cnc(OCC(F)(F)F)c(Cl)c2)cc1F` [Preparation 94], the IC50 turned out to be 9 nM. Under `NS(=O)(=O)NC(=O)c1cc(Cl)c(Oc2cnc(Cl)c(Cl)c2)cc1F` [Preparation 34, 5-chloro-4-((5,6-dichloropyridin-3-yl)oxy)-2-fluoro-N-sulfamoylbenzamide] stands 4680 nM; under `Cc1nc2ccc(Oc3cc(F)c(C(=O)NS(=O)(=O)N(C)C)cc3Cl)cc2s1` [Preparation 64, 5-chloro-N-(N,N-dimethylsulfamoyl)-2-fluoro-4-((2-methyl-benzo[d]thiazol-6-yl)oxy)benzamide], 1900 nM. In the case of `CN(C)S(=O)(=O)NC(=O)c1cc(Cl)c(OCCc2ccccc2)cc1F` [Preparation 58, 5-chloro-N-(N,N-dimethylsulfamoyl)-2-fluoro-4-phenethoxy-benzamide], the half-inhibitory concentration (IC50) came to 1300 nM. On to `NS(=O)(=O)NC(=O)c1cc(Cl)c(Oc2ccc3ccccc3c2)cc1F` [Preparation 48, 5-chloro-2-fluoro-4-(naphthalen-2-yloxy)-N-sulfamoyl-benzamide], for which the IC50 turned out to be 138 nM. As for `CC(C)COc1ncc(Oc2cc(F)c(C(=O)NS(=O)(=O)N3CCC3)cc2Cl)cc1Cl` [Preparation 46, N-(azetidin-1-ylsulfonyl)-5-chloro-4-((5-chloro-6-iso-butoxypyridin-3-yl)oxy)-2-fluorobenzamide], the half-inhibitory concentration (IC50) was 9.2 nM.

For `CN(C)S(=O)(=O)NC(=O)c1cc(Cl)c(Oc2ccc(C#N)cc2)cc1F` [Preparation 43, 5-chloro-4-(4-cyano-phenoxy)-N-(N,N-dimethylsulfamoyl)-2-fluorobenzamide], the 50% inhibitory concentration (IC50) is 10000 nM. Regarding `O=C(NS(=O)(=O)N1CCC1)c1cc(Cl)c(COc2ccc(Cl)c(C(F)(F)F)c2)cc1F` [Preparation 85], the half-maximal inhibitory concentration (IC50) came out at 26 nM.

`CNS(=O)(=O)NC(=O)c1cc(Cl)c(COc2ccc(OC(F)(F)F)c(Cl)c2)cc1F` [Preparation 100]: the half-maximal inhibitory concentration (IC50) was 43 nM.

For `CN(C)S(=O)(=O)NC(=O)c1cc(Cl)c(Oc2cnc(N3CCCCC3)c(Cl)c2)cc1F` [Preparation 63, 5-chloro-4-((5-chloro-6-(piperidin-1-yl)pyridin-3-yl)oxy)-N-(N,N-dimethyl-sulfamoyl)-2-fluoro-benzamide], the IC50 was determined as 140 nM.

For the molecule `CC(C)COc1ncc(Oc2cc(F)c(C(=O)NS(=O)(=O)N3CCNCC3)cc2Cl)cc1Cl` [Preparation 42, 5-chloro-4-((5-chloro-6-isobutoxypyridin-3-yl)oxy)-2-fluoro-N-(piperazin-1-ylsulfonyl)benzamide], the IC50 worked out at 856 nM. As to `CN(C)S(=O)(=O)NC(=O)c1cc(Cl)c(Oc2ccc3cc[nH]c3c2)cc1F` [Preparation 56, 4-((1H-indol-6-yl)oxy)-5-chloro-N-(N,N-dimethyl-sulfamoyl)-2-fluoro-benzamide], the IC50 was determined as 990 nM. Then `CN(C)S(=O)(=O)NC(=O)c1cc(Cl)c(Oc2cnc(Cl)c(Cl)c2)cc1F` [Preparation 35, 5-chloro-4-((5,6-dichloropyridin-3-yl)oxy)-N-(N,N-dimethylsulfamoyl)-2-fluorobenzamide], with 665 nM. Then `O=C(NS(=O)(=O)N1CCC1)c1cc(Cl)c(COc2ccc(OC(F)(F)F)c(Cl)c2)cc1F` [Preparation 79], with 17 nM; and `CC(C)Oc1ncc(Oc2cc(F)c(C(=O)NS(=O)(=O)N3CCC3)cc2C2(F)COC2)cc1Cl` [Preparation 88], with 44 nM; and `CN(C)S(=O)(=O)NC(=O)c1cc(F)c(Oc2ccc(OC(F)(F)F)c(Cl)c2)cc1F` [Preparation 31, 4-(3-chloro-4-(tri-fluoromethoxy)phenoxy)-N-(N,N-dimethylsulfamoyl)-2,5-difluoro-benzamide], with 860 nM.

What is called IC50 is the concentration at which inhibition is half-maximal.
